SMILES strings stand for the structures. “And” between values parts separate entries of the source, which are not always exact repeats. Identical values can stand only once. Like-named read-outs stand apart in the source and are kept apart here.

Experiment [1] deals with non-selective α1 adrenergic receptor. Kind of experiment: α1 adrenergic receptor radioligand binding ([3H]prazosin). The settings on record: rat cerebral cortex; for Adrenergic α1 (non-selective) % Inhibition (10 μM): 0.25 nM [3H]prazosin; for IC50: [3H]prazosin. The method, then: (§1) α1 Adrenergic and Dopamine D2 Receptors. Methods: Binding and functional assays for α1 adrenergic and dopamine D2 receptors were performed by Eurofins Cerep according to their methods.
α1 Adrenergic Receptor. Binding at 10 μM. The binding assay evaluated the affinity of test article for the non-selective α1 adrenergic receptor in rat cerebral cortex. Membrane homogenates of cerebral cortex were incubated in duplicate for 60 minutes at room temperature with 0.25 nM [^3H]prazosin in the absence or presence of test articles at 10 μM. After the incubation period, samples were filtered through glass fiber filters, the filters dried and then counted for radioactivity using a scintillation counter. Results are expressed as mean percent inhibition of control radioligand binding.
Binding IC50. […] Compound A was tested at 0.01-30 μM. […] Compound 1 and Compound 2, the S-enantiomer of Compound 1, were assayed at 0.03-100 μM. Radioactivity was measured as described above. The IC50 was defined as the concentration causing a half-maximum inhibition of control specific binding.

The target in the next experiment is T1, α1B adrenergic receptor (Homo sapiens, UniProt P35368).
T1 construct: host or cells: CHO cells
T1 sequence (P35368 1-520): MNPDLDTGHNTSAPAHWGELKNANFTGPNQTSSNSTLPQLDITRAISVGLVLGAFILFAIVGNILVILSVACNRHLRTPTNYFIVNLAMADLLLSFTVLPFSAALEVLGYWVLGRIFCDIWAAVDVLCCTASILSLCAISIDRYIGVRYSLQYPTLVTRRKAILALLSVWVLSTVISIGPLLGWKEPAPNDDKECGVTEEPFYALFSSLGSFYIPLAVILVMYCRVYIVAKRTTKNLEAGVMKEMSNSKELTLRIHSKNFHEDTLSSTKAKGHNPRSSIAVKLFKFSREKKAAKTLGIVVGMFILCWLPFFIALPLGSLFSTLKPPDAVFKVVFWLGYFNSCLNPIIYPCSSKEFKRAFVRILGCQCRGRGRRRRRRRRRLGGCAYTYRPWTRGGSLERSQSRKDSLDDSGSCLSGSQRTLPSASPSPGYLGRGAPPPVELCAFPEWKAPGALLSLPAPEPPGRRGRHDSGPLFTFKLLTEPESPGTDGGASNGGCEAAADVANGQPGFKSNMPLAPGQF
Kind of experiment: α1B adrenergic receptor antagonist assay (cAMP, CHO cells). In kind it is cell-based. The procedure:
as §1
Antagonist activity. The antagonistic effects of test compounds on the α1A and α1B adrenergic receptors were measured using human receptor-transfected Chinese hamster ovary (CHO) cells. Antagonist activity was determined by measuring compound effect on agonist (epinephrine)-induced calcium mobilization in the α1A receptor assay or cAMP levels in the α1B receptor assay. In these experiments, CHO cells were incubated in duplicate at room temperature with test article and epinephrine at 3 nM in the α1A receptor assays or at 3000 nM in the α1B receptor assay. Compound A was tested in the α1A receptor assay at 0.01-30 μM. […] Compound 1 and Compound 2 were assayed at 0.03 to 30 μM in the α1A receptor assay and 0.03 to 100 μM in the α1B receptor assay. In the α1A receptor assay, cytosolic calcium levels were measured fluorometrically using the fluorescent probe, Fluo4 Direct. Intracellular cAMP levels in the α1B adrenergic receptor assay were measured by homogenous time-resolved fluorescence (HTRF). The antagonism IC50 was defined as the concentration causing a half-maximum inhibition of control agonist response.

Experiment [2] has as its target T2, dopamine D2S receptor (Homo sapiens, UniProt P14416).
T2 construct: host or cells: HEK-293 cells (membrane homogenates)
The experiment is described as follows: Dopamine D2S receptor radioligand binding (HEK-293). The settings on record: for inhibition at 10 µM: read-out: Dopamine D2S % Inhibition (10 μM). The procedure:
as §1
(§2) Dopamine D2 Receptor. Binding at 10 μM. The binding assay evaluated the affinity of test articles for the dopamine D2 receptor in transfected human embryonic kidney (HEK)-293 cells. For determining the binding in the D2S receptor assay, test article was incubated with 0.3 nM [^3H] methylspiperone or 1 nM [^3H] 7-hydroxy-2-N,N-dipropylaminotetralin (7-OH-DPAT). [3H] Methylspiperone at 0.3 nM also was used as control ligand in the D2L binding assay. Cell membrane homogenates were incubated in duplicate at room temperature for 60 minutes with ligand in the absence or presence of test articles at 10 μM. After the incubation period, samples were filtered through glass fiber filters, the filters dried and then counted for radioactivity using a scintillation counter. Results are expressed as mean percent inhibition of control radioligand binding.
(§3) Binding IC50. To determine the binding IC50 in the D2 receptor assays, HEK-293 were tested as described above but with varying concentrations of test article. Compound A was tested at 0.01-30 μM in the D2S radioligand binding assay. […] Compound 1 was assayed at 0.03-100 μM in both the D2S and D2L assays, while Compound 2 was tested at 0.03-100 μM in the D2S assay and 0.01-100 μM in the D2L assays. The IC50 was defined as the concentration causing a half-maximum inhibition of control specific binding.

In a further experiment the target is T3, dopamine D2L receptor (Homo sapiens, UniProt P14416).
T3 construct: host or cells: HEK-293 cells (membrane homogenates)
The experiment is described as follows: Dopamine D2L receptor radioligand binding (HEK-293). The procedure: as §1, §2, §3

Experiment [3] addresses T2, dopamine D2S receptor. The experiment is described as follows: Dopamine D2S receptor agonist assay (impedance, HEK-293). In kind it is cell-based. The procedure:
as §1
Agonist activity. The agonism of test compounds on the dopamine D2S receptor was assessed using human receptor-transfected HEK-293 cells. Agonist activity was determined by measuring compound effect on impedance modulation. In these experiments, HEK-293 cells were incubated in duplicate at 28° C. with test article. Compound A was tested at 0.01-30 μM. […] Dopamine (3 μM) was used as an agonist control. Impedance measurements were monitored for 10 minutes after ligand addition using cellular dielectric spectroscopy. The EC50 was defined as the concentration causing a half-maximum response, compared to the control agonist (dopamine) response.

T3 sequence (P14416 whole entry): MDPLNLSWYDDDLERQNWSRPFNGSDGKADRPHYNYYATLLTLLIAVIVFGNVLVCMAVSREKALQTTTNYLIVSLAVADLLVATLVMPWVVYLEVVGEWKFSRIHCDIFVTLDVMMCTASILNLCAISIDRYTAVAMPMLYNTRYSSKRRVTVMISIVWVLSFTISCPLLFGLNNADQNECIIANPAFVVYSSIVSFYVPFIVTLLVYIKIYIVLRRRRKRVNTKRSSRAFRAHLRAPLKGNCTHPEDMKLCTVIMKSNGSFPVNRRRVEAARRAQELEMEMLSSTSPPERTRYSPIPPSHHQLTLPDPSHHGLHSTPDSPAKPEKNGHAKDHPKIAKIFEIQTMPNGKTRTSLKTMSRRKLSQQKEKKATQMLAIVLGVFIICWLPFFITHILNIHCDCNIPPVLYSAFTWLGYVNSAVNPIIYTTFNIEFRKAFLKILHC
T2 sequence (P14416 1-414 isoform P14416-2): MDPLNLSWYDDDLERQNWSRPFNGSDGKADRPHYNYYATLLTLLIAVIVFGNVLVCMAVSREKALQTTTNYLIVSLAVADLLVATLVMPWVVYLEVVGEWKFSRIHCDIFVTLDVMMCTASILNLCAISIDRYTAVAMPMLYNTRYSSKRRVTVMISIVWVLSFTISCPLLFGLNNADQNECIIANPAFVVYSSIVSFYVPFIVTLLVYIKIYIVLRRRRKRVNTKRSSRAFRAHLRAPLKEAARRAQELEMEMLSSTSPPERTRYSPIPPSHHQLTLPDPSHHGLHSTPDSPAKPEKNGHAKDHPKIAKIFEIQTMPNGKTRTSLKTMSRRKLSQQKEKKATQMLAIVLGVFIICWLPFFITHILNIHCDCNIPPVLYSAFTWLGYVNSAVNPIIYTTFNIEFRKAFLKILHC

One may read the IC50 as the concentration that gives 50% inhibition. In general, inhibition refers to the drop in the measured response relative to a control, in per cent. As for `N#Cc1ccc(N2CCN(Cc3ccc(COc4cccc5c4CN(C4CCC(=O)NC4=O)C5=O)cc3)CC2)c(F)c1` (racemic) [Compound 1, 4-(4-(4-(((2-(2,6-dioxopiperidin-3-yl)-1-oxoisoindolin-4-yl)oxy)methyl)benzyl)piperazin-1-yl)-3-fluorobenzonitrile], the “Adrenergic α1 (non-selective) % Inhibition (10 μM)” value in experiment [1] is 67%. The IC50 amounted to 3900 nM in experiment [1], 6900 nM at α1B adrenergic receptor, 7400 nM at dopamine D2S receptor [2] and 2300 nM at dopamine D2L receptor. In addition, the inhibition at 10 µM at dopamine D2S receptor [2] and on dopamine D2L receptor (read-out: D2L % Inhibition (10 μM)) was 55% in each case. Besides, at dopamine D2S receptor [3] (impedance, versus dopamine control), the “D2S Agonism EC50” value is “Negative”.
For orientation: EC50 means the concentration giving half of the maximal effect. `N#Cc1ccc(N2CCN(Cc3ccc(COc4cccc5c4CN([C@H]4CCC(=O)NC4=O)C5=O)cc3)CC2)c(F)c1` [Compound 2, (S)-4-(4-(4-(((2-(2,6-dioxopiperidin-3-yl)-1-oxoisoindolin-4-yl)oxy)methyl)benzyl)piperazin-1-yl)-3-fluorobenzonitrile]: the “Adrenergic α1 (non-selective) % Inhibition (10 μM)” value in experiment [1] is listed as 62%. Also, the IC50 in experiment [1] is around 1300 nM; on α1B adrenergic receptor, 2400 nM; at dopamine D2S receptor [2] it was around 2000 nM; on dopamine D2L receptor, around 3000 nM. Besides, the inhibition at 10 µM on dopamine D2S receptor [2] worked out at 52%. Also, the EC50 at dopamine D2S receptor [3] was above 10000 nM.
For the compound `O=C1CC[C@H](N2Cc3c(OCc4ccc(CN5CCN(c6ccc(F)cc6F)CC5)cc4)cccc3C2=O)C(=O)N1` [Compound B], in experiment [1], the “Adrenergic α1 (non-selective) % Inhibition (10 μM)” value is 98% and 100%. In addition, the IC50 in experiment [1] amounted to 24 nM; at α1B adrenergic receptor (epinephrine 3000 nM, cAMP, read-out: Antagonism IC50 α1B) it was 78 nM; on dopamine D2L receptor (read-out: D2L Binding IC50), 84 nM. In addition, the “Dopamine D2S % Inhibition (10 μM)” value on dopamine D2S receptor [2] (10 μM) is 99, % and 99^a %. On dopamine D2L receptor (10 μM), the “D2L % Inhibition (10 μM)” value worked out at 103%. For the same compound, at dopamine D2S receptor [3] (impedance, versus dopamine control, read-out: D2S Agonism EC50), the EC50 is 2700 nM and 1900 nM.

Values taken from patent US12029738B2, “Antiproliferative compounds and methods of use thereof” (Celgene Corporation, priority 2017, dated 2024).
